In the NIST ThermoML archive (doi:10.1016/j.fluid.2015.03.048):
± gives the expanded uncertainty stated by the source.

Experiment: xn = mol fraction of the nth substance listed
Conditions: 303.15 K, 100 kPa, Liquid; for viscosity: Capillary tube (Ostwald / Ubbelohde) method; for excess molar volume: Direct dilatometry; for speed of sound: Frequency=3 MHz, Sing-around technique in a fixed-path interferometer; for mass density: Pycnometric method

Clc1ccc(Cl)c(Cl)c1 [1,2,4-trichlorobenzene] + CC(=O)N(C)C
Conditions	excess molar volume [m3/mol]	mass density [kg/m3]	speed of sound [m/s]	viscosity [mPa·s]
x2 = 0.0697	–	1407.11 ± 14	1289 ± 3	–
x2 = 0.0921	2.1e-08 ± 6e-09	–	–	1.608 ± 0.019
x2 = 0.1026	–	1390.55 ± 14	1299 ± 3	–
x2 = 0.1341	3.1e-08 ± 6e-09	–	–	1.578 ± 0.019
x2 = 0.1407	–	1371.4 ± 14	1308 ± 3	–
x2 = 0.1758	–	1353.78 ± 14	1316 ± 3	–
x2 = 0.1815	4.3e-08 ± 6e-09	–	–	1.523 ± 0.018
x2 = 0.2103	–	1336.46 ± 13	1325 ± 3	–
x2 = 0.2241	5.2e-08 ± 6e-09	–	–	1.474 ± 0.018
x2 = 0.2601	–	1311.41 ± 13	1336 ± 3	–
x2 = 0.265	6.1e-08 ± 6e-09	–	–	1.445 ± 0.018
x2 = 0.3225	7.4e-08 ± 6e-09	–	–	1.403 ± 0.017
x2 = 0.3592	–	1261.63 ± 13	1354 ± 3	–
x2 = 0.4015	–	1240.42 ± 12	1365 ± 3	–
x2 = 0.4257	–	1228.27 ± 12	1368 ± 3	–
x2 = 0.4315	9.5e-08 ± 6e-09	–	–	1.383 ± 0.017
x2 = 0.476	9.9e-08 ± 6e-09	–	–	1.353 ± 0.017
x2 = 0.4786	–	1201.84 ± 12	1378 ± 3	–
x2 = 0.501	1e-07 ± 6e-09	–	–	1.284 ± 0.016
x2 = 0.5539	–	1164.24 ± 12	1391 ± 3	–
x2 = 0.5542	9.7e-08 ± 6e-09	–	–	1.292 ± 0.016
x2 = 0.6271	8.8e-08 ± 6e-09	–	–	1.205 ± 0.015
x2 = 0.6383	–	1122.13 ± 11	1405 ± 3	–
x2 = 0.705	7.3e-08 ± 6e-09	–	–	1.197 ± 0.015
x2 = 0.7344	–	1074.16 ± 11	1419 ± 3	–
x2 = 0.7519	–	1065.39 ± 11	1420 ± 3	–
x2 = 0.7892	5.5e-08 ± 6e-09	–	–	1.152 ± 0.015
x2 = 0.8041	5.2e-08 ± 6e-09	–	–	1.096 ± 0.014
x2 = 0.9052	–	988.77 ± 9.9	1440 ± 3	–
x2 = 0.9282	2.2e-08 ± 6e-09	–	–	1.088 ± 0.014

Clc1ccccc1Cl [1,2-dichlorobenzene] + CC(=O)N(C)C
Conditions	excess molar volume [m3/mol]	mass density [kg/m3]	speed of sound [m/s]	viscosity [mPa·s]
x2 = 0.0664	–	1275.7 ± 13	1263 ± 3	–
x2 = 0.0805	-3.6e-08 ± 6e-09	–	–	1.294 ± 0.016
x2 = 0.1017	–	1263.13 ± 13	1276 ± 3	–
x2 = 0.1224	-5e-08 ± 6e-09	–	–	1.29 ± 0.016
x2 = 0.1344	–	1251.49 ± 13	1284 ± 3	–
x2 = 0.1605	-6e-08 ± 6e-09	–	–	1.283 ± 0.016
x2 = 0.1841	–	1233.77 ± 12	1298 ± 3	–
x2 = 0.2175	-7.5e-08 ± 6e-09	–	–	1.277 ± 0.016
x2 = 0.2229	–	1219.92 ± 12	1307 ± 3	–
x2 = 0.2611	-8.4e-08 ± 6e-09	–	–	1.276 ± 0.016
x2 = 0.2821	–	1198.76 ± 12	1319 ± 3	–
x2 = 0.3261	-9.1e-08 ± 6e-09	–	–	1.261 ± 0.016
x2 = 0.4095	–	1152.99 ± 12	1344 ± 3	–
x2 = 0.4319	-9.2e-08 ± 6e-09	–	–	1.253 ± 0.016
x2 = 0.4585	–	1135.37 ± 11	1353 ± 3	–
x2 = 0.4607	-8.8e-08 ± 6e-09	–	–	1.24 ± 0.016
x2 = 0.5105	-8.1e-08 ± 6e-09	–	–	1.232 ± 0.016
x2 = 0.5742	–	1093.68 ± 11	1377 ± 3	–
x2 = 0.6242	-5.5e-08 ± 6e-09	–	–	1.225 ± 0.016
x2 = 0.6565	–	1064.03 ± 11	1393 ± 3	–
x2 = 0.7019	-3.4e-08 ± 6e-09	–	–	1.218 ± 0.015
x2 = 0.7168	–	1042.36 ± 10	1402 ± 3	–
x2 = 0.7571	-1.8e-08 ± 6e-09	–	–	1.211 ± 0.015
x2 = 0.7764	–	1020.96 ± 10	1413 ± 3	–
x2 = 0.8105	-5e-09 ± 6e-09	–	–	1.201 ± 0.015
x2 = 0.822	–	1004.63 ± 10	1419 ± 3	–
x2 = 0.8505	2e-09 ± 6e-09	–	–	1.112 ± 0.015
x2 = 0.9177	–	970.54 ± 9.7	1435 ± 3	–
x2 = 0.9321	7e-09 ± 6e-09	–	–	0.908 ± 0.013
